One series deals with Bacillus subtilis. As to the kind of experiment: Antimicrobial activity against antibiotic-resistant Bacillus subtilis ATCC 6623 assessed as inhibition of visible growth measured after 20 to 24 hrs incubation by CLSI method. Format: functional. Particulars: time 20-24 hrs.
The next series relates to Enterococcus faecium. As to the kind of experiment: Antimicrobial activity against antibiotic-resistant Enterococcus faecium ATCC 700221 assessed as inhibition of visible growth measured after 20 to 24 hrs incubation by CLSI method. Particulars: time 20-24 hrs. The class given is functional.
The test system of series [1] is Staphylococcus aureus. As to the kind of experiment: In vivo antimicrobial activity against Staphylococcus aureus Newman infected in Caenorhabditis elegans AU37 nematodes assessed as viability of nematodes incubated for 5 days by susceptibility test. The class given is functional. Particulars: 120 h, time 5 day.
In series [2] the test system is Staphylococcus aureus. As to the kind of experiment: In vivo antimicrobial activity against Staphylococcus aureus USA300 infected in Caenorhabditis elegans AU37 nematodes assessed as viability of nematodes incubated for 5 days by susceptibility test. The class given is functional. The settings on record: USA300, 120 h, time 5 day.
For another series, the system named is HEK293. Kind of series: Cytotoxicity against human HEK293 cells assessed as cell viability measured after 24 hrs by resazurin assay. Format: toxicity, cell-based. (Resazurin is reduced to fluorescent resorufin, in cell work by metabolically active cells.)
In series [3] the test system is Staphylococcus aureus. Kind of series: Antimicrobial activity against antibiotic-resistant Staphylococcus aureus ATCC 33591 assessed as inhibition of visible growth measured after 20 to 24 hrs incubation by CLSI method. The class given is functional. Particulars: time 20-24 hrs.
Series [4] deals with Staphylococcus aureus. Kind of series: Antimicrobial activity against Staphylococcus aureus ATCC 25923 assessed as inhibition of visible growth measured after 20 to 24 hrs incubation by CLSI method. The class given is functional. Particulars: time 20-24 hrs.
Series [5] relates to Staphylococcus aureus. Kind of series: Antimicrobial activity against antibiotic-resistant Staphylococcus aureus ATCC 33592 assessed as inhibition of visible growth measured after 20 to 24 hrs incubation by CLSI method. Particulars: time 20-24 hrs. The class given is functional.
The test system of series [6] is Enterococcus faecalis. As to the kind of experiment: Antimicrobial activity against antibiotic-resistant Enterococcus faecalis ATCC 51299 assessed as inhibition of visible growth measured after 20 to 24 hrs incubation by CLSI method. The class given is functional. The settings on record: time 20-24 hrs.
Series [7] deals with Staphylococcus aureus. As to the kind of experiment: Antimicrobial activity against antibiotic-resistant Staphylococcus aureus ATCC 700699 assessed as inhibition of visible growth measured after 20 to 24 hrs incubation by CLSI method. Format: functional. Particulars: time 20-24 hrs.
In series [8] the test system is Staphylococcus epidermidis. As to the kind of experiment: Antimicrobial activity against antibiotic-resistant Staphylococcus epidermidis ATCC 700296 assessed as inhibition of visible growth measured after 20 to 24 hrs incubation by CLSI method. Format: functional. Particulars: time 20-24 hrs.
Series [9] deals with Staphylococcus aureus. Kind of series: In vivo antimicrobial activity against Staphylococcus aureus UAMS-1 infected in Caenorhabditis elegans AU37 nematodes assessed as viability of nematodes incubated for 5 days by susceptibility test. Format: functional. Particulars: UAMS-1, 120 h, time 5 day.
The subject of series [10] is Enterococcus faecalis. As to the kind of experiment: Antimicrobial activity against antibiotic-susceptible Enterococcus faecalis ATCC 29212 assessed as inhibition of visible growth measured after 20 to 24 hrs incubation by CLSI method. Particulars: time 20-24 hrs. The class given is functional.
Series [11] has as its system Staphylococcus aureus. Kind of series: Antimicrobial activity against antibiotic-resistant Staphylococcus aureus ATCC BAA-2312 assessed as inhibition of visible growth measured after 20 to 24 hrs incubation by CLSI method. Format: functional. Particulars: time 20-24 hrs.
Series [12] has as its system Staphylococcus aureus. Kind of series: Antimicrobial activity against clinical isolate Staphylococcus aureus Smu81 assessed as inhibition of growth measured after 20 to 24 hrs incubation by CLSI method. The class given is functional. Particulars: time 20-24 hrs.
The subject of series [13] is Staphylococcus aureus. As to the kind of experiment: Antimicrobial activity against clinical isolate Staphylococcus aureus Smu109 assessed as inhibition of growth measured after 20 to 24 hrs incubation by CLSI method. The class given is functional. Particulars: time 20-24 hrs.
Series [14] has as its system Staphylococcus aureus. As to the kind of experiment: Antimicrobial activity against clinical isolate Staphylococcus aureus Smu9 assessed as inhibition of growth measured after 20 to 24 hrs incubation by CLSI method. Format: functional. The settings on record: time 20-24 hrs.
For series [15], the system named is Staphylococcus aureus. As to the kind of experiment: Antimicrobial activity against Staphylococcus aureus UAB159 assessed as inhibition of growth measured after 20 to 24 hrs incubation by CLSI method. Format: functional. Particulars: time 20-24 hrs.
Series [16] has as its system Staphylococcus aureus. Kind of series: Antimicrobial activity against clinical isolate Staphylococcus aureus Smu57 assessed as inhibition of growth measured after 20 to 24 hrs incubation by CLSI method. Format: functional. Particulars: time 20-24 hrs.
Series [17] has as its system Staphylococcus aureus. Kind of series: Antimicrobial activity against clinical isolate Staphylococcus aureus Smu21 assessed as inhibition of growth measured after 20 to 24 hrs incubation by CLSI method. The class given is functional. The settings on record: time 20-24 hrs.
Series [18] has as its system Enterococcus faecalis. Kind of series: Antimicrobial activity against antibiotic-susceptible Enterococcus faecalis ATCC 29212 assessed as eradication of biofilm measured after 24 hrs incubation by Calgary method. The class given is functional.
The subject of a further series is Cell membrane. Kind of series: Induction of membrane permeability in Staphylococcus aureus ATCC 700699 assessed as increase in fluorescence intensity at 4 times of MIC incubated for 15 mins measured for 1 hr by propidium iodide/real time fluorescence based flow cytometry Rvb = 3.5). The settings on record: time 75.0 min. (In general: In flow cytometry, cells or beads pass a laser one at a time.)

Series [19] deals with Staphylococcus aureus. Kind of series: Antimicrobial activity against Staphylococcus aureus ATCC 25923 assessed as eradication of biofilm measured after 24 hrs incubation by Calgary method. The class given is functional.

As usually defined, the MIC is the smallest concentration in the dilution series that meets the test's criterion for growth inhibition. As a reminder, the IC50 is the concentration needed to halve the response being measured.

Structures are written as SMILES. Converted amounts (≈) assume the structure as drawn. Where only a bound is given, the exact number is not on record here.

On to `O=C(O)c1ccc(-n2cc(CNc3cc(Cl)c(F)c(Cl)c3)c(-c3cccc(F)c3)n2)cc1`, for which the MIC was 1 mg/L (≈ 2.11 µM) in the series with Bacillus subtilis; 4 mg/L (≈ 8.43 µM) with Enterococcus faecium; 1 mg/L (≈ 2.11 µM) in the series with Staphylococcus aureus [1]; 1 mg/L (≈ 2.11 µM) in the series with Staphylococcus aureus [2]; 0.5 mg/L (≈ 1.05 µM) in the series with Staphylococcus aureus [3]; 1 mg/L (≈ 2.11 µM) in the series on Staphylococcus aureus [4]. Besides, the MIC in the series on Staphylococcus aureus [5] amounted to 1 mg/L (≈ 2.11 µM); with Enterococcus faecalis [6], 4 mg/L (≈ 8.43 µM); in the series on Staphylococcus aureus [7] it was 2 mg/L (≈ 4.22 µM); in series [8], 2 mg/L (≈ 4.22 µM); in the series with Staphylococcus aureus [9], 1 mg/L (≈ 2.11 µM); with Enterococcus faecalis [10], 8 mg/L (≈ 16.9 µM). For the same compound, the MIC in the series with Staphylococcus aureus [11] was determined as 0.5 mg/L (≈ 1.05 µM). For the same compound, the IC50 with HEK293 came to 20 mg/L (≈ 42.2 µM).
As to `O=C(O)c1ccc(-n2cc(CNc3cc(Cl)cc(C(F)(F)F)c3)c(-c3ccc(F)c(F)c3)n2)cc1`, the minimum inhibitory concentration (MIC) turned out to be 0.5 mg/L (≈ 0.985 µM) in the series with Bacillus subtilis; 2 mg/L (≈ 3.94 µM) in the series with Enterococcus faecium; 0.5 mg/L (≈ 0.985 µM) with Staphylococcus aureus [1]; 1 mg/L (≈ 1.97 µM) with Staphylococcus aureus [2]; 0.5 mg/L (≈ 0.985 µM) in the series with Staphylococcus aureus [3]; 1 mg/L (≈ 1.97 µM) in the series on Staphylococcus aureus [4]. Besides, the MIC with Staphylococcus aureus [5] is 1 mg/L (≈ 1.97 µM); in the series on Enterococcus faecalis [6], 2 mg/L (≈ 3.94 µM); with Staphylococcus aureus [7], 1 mg/L (≈ 1.97 µM); in series [8], 2 mg/L (≈ 3.94 µM); in the series on Staphylococcus aureus [9], 1 mg/L (≈ 1.97 µM); in the series with Enterococcus faecalis [10], 4 mg/L (≈ 7.88 µM). Also, the MIC with Staphylococcus aureus [11] was 0.5 mg/L (≈ 0.985 µM).
With `O=C(O)c1ccc(-n2cc(CNc3cc(C(F)(F)F)cc(C(F)(F)F)c3)c(-c3ccc(F)cc3)n2)cc1`, the MIC in the series with Bacillus subtilis was 1 mg/L (≈ 1.91 µM); with Enterococcus faecium, 2 mg/L (≈ 3.82 µM); in the series with Staphylococcus aureus [1], 0.5 mg/L (≈ 0.955 µM); in the series with Staphylococcus aureus [2] it was 1 mg/L (≈ 1.91 µM); in the series on Staphylococcus aureus [3], 0.5 mg/L (≈ 0.955 µM); with Staphylococcus aureus [4], 1 mg/L (≈ 1.91 µM). Further, the MIC was determined as 1 mg/L (≈ 1.91 µM) in the series with Staphylococcus aureus [5]; 4 mg/L (≈ 7.64 µM) in the series on Enterococcus faecalis [6]; 2 mg/L (≈ 3.82 µM) in the series on Staphylococcus aureus [7]; 4 mg/L (≈ 7.64 µM) in series [8]; 1 mg/L (≈ 1.91 µM) with Staphylococcus aureus [9]; 4 mg/L (≈ 7.64 µM) with Enterococcus faecalis [10]. In addition, the MIC in the series with Staphylococcus aureus [11] turned out to be 1 mg/L (≈ 1.91 µM).
On to `O=C(O)c1ccc(-n2cc(CNc3cc(Cl)c(F)c(Cl)c3)c(-c3ccc(C(F)(F)F)cc3)n2)cc1`, for which the MIC with Staphylococcus aureus [12], with Staphylococcus aureus [13], in the series with Staphylococcus aureus [14], in the series with Staphylococcus aureus [15], with Staphylococcus aureus [16] and in the series on Staphylococcus aureus [17] was 2 mg/L (≈ 3.81 µM) throughout.
For the compound `CCCCCCCCCC(=O)N[C@@H](Cc1c[nH]c2ccccc12)C(=O)N[C@H](CC(N)=O)C(=O)N[C@@H](CC(=O)O)C(=O)N[C@@H]1C(=O)NCC(=O)N[C@@H](CCCN)C(=O)N[C@@H](CC(=O)O)C(=O)N[C@H](C)C(=O)N[C@@H](CC(=O)O)C(=O)NCC(=O)N[C@H](CO)C(=O)N[C@@H]([C@H](C)CC(=O)O)C(=O)N[C@@H](CC(=O)c2ccccc2N)C(=O)O[C@@H]1C`, the values for the MBEC in the series on Enterococcus faecalis [18] and with Staphylococcus aureus [19] were 16 µg/mL and above 32 µg/mL, respectively. In addition, the MIC worked out at 16 mg/L (≈ 9.87 µM) with Enterococcus faecium; 4 mg/L (≈ 2.47 µM) in the series on Staphylococcus aureus [1]; 4 mg/L (≈ 2.47 µM) with Staphylococcus aureus [2]; 16 mg/L (≈ 9.87 µM) in the series on Enterococcus faecalis [6]; 8 mg/L (≈ 4.94 µM) in the series on Staphylococcus aureus [7]; 4 mg/L (≈ 2.47 µM) in the series on Staphylococcus aureus [9]. Further, in the series with Enterococcus faecalis [10], the minimal inhibitory concentration (MIC) amounted to 16 mg/L (≈ 9.87 µM). In addition, in the series on Cell membrane, the Activity was 7.02%.
Consider `O=C(O)c1ccc(-n2cc(CNc3ccc(Cl)c(Cl)c3)c(-c3ccc(F)cc3)n2)cc1`, for which the MIC with Bacillus subtilis is 1 mg/L (≈ 2.19 µM); in the series on Enterococcus faecium, above 32 mg/L; in the series with Staphylococcus aureus [1], 1 mg/L (≈ 2.19 µM); with Staphylococcus aureus [2], 1 mg/L (≈ 2.19 µM); with Staphylococcus aureus [3], 0.5 mg/L (≈ 1.1 µM); with Staphylococcus aureus [4] it was 2 mg/L (≈ 4.38 µM). The MIC was 2 mg/L (≈ 4.38 µM) in the series on Staphylococcus aureus [5]; above 32 mg/L in the series on Enterococcus faecalis [6]; 1 mg/L (≈ 2.19 µM) with Staphylococcus aureus [7]; 4 mg/L (≈ 8.77 µM) in [8]; 1 mg/L (≈ 2.19 µM) in the series with Staphylococcus aureus [9]; above 32 mg/L in the series with Enterococcus faecalis [10]. In the series with Staphylococcus aureus [11], the minimum inhibitory concentration (MIC) is 1 mg/L (≈ 2.19 µM).

(Values after ChEMBL document CHEMBL5365500, “Development and Antibacterial Properties of 4-[4-(Anilinomethyl)-3-phenylpyrazol-1-yl]benzoic Acid Derivatives as Fatty Acid Biosynthesis Inhibitors” (J Med Chem, 2023).)
